In patent publication US9670197B2, “Small molecule modifiers of the Hec1-Nek2 interaction in G2/M” (The Regents of the University of California, priority 2013, dated 2017):

Experiments:
[1] = tested on: MDA-MB-468 breast cancer cells tumor xenografts; assay: Breast tumor xenograft model; format: in vivo, athymic nude mice; details: versus vehicle; for tumor growth rate: thrice-weekly i.p., 10 or 50 mg/kg INH41, 5 or 20 mg/kg INH154, 6.5 weeks; for percentage of proliferating tumor cells (BrdU staining) / phosphorylation of Hec1 at S165 in tumors: tumors harvested one week after last injection
Text: INH inhibition of breast tumor growth in xenograft model. We performed in vivo xenograft mouse experiments to examine the efficacy of INHs in accordance with guidelines and protocols of the University of California at Irvine Animal Research Committee. MDA-MB-468 breast cancer cells (2×10^6) were inoculated into mammary fat pads of 6-8 week old athymic nude mice mice (nu/nu; Harlan Sprague-Dawley Inc., Indianapolis, Ind.) to form tumor xenografts. […] Administration of control and INH treatments was carried out for 6.5 weeks and tumor sizes were measured. Mice body weights and tumor sizes were measured twice weekly. Tumor volume was calculated as (length×width^2)/2 (in mm), and data were presented as mean tumor volume±SEM.
One week after the last injections were administered, mice were sacrificed and their tumors were harvested for immunohistochemistry analysis. […] Error bars represent SE (n=4) in FIGS. 2C and 2D.
Immunohistochemistry analysis was conducted as follows. Paraffin-embedded tumor sections (5 μm) were incubated with primary antibody, counterstained with hematoxylin, and detected using a LSAB™ kit (DakoCytomation) according to the manufacturer's instructions. BrdU antibody was purchased from GeneTex, Irvine, Calif. and Hec1 pS165 antibody was prepared as described in Wei et al. Phosphorylation of the Ndc80 complex protein, HEC1, by Nek2 kinase modulates chromosome alignment and signaling of the spindle assembly checkpoint. Molecular biology of the cell 22, 3584-3594 (2011), hereby incorporated by reference in its entirety.

[2] = tested on: Aurora A; assay: Aurora A expression in treated HeLa cells, western blot; format: cell-based; details: dose series
Method: INH-induced Nek2 degradation; INH-inhibition of Hec1 phosphorylation by Nek2. […] To evaluate whether INH treatment affected cell cycle profile or Nek2 mRNA level, we performed FACS and real-time PCR analysis.
Protein extraction and western blot analysis. The protein extractions and western blot analyses of Examples 4-6 were conducted as follows. Cell extracts were prepared and equal amounts of protein were separated by SDS-PAGE (10% w/v gel) followed by electrophoretic transfer to PVDF membranes (Millipore, Billerica, Mass.). After blocking with 5% w/v powdered non-fat milk, the membrane was incubated with different antibodies for overnight at 4° C. and treated for 1 hr with horseradish peroxidase-conjugated goat anti-mouse IgG and goat anti-rabbit IgG antibodies (GeneTex, Irvine, Calif.). ECL detection of the horseradish peroxidase reaction was performed according to the manufacturer's instructions (Millipore, Billerica, Mass.). Protein signal was measured on a LAS 4000 mini Imaging System (Fujifilm, Valhalla, N.Y.).

[3] = tested on: U2OS; assay: Cancer cell growth inhibition, U2OS osteosarcoma; format: cell-based; details: Homo sapiens, Table 2, Osteosarcoma, read-out: cancer cell growth suppression
Method: (§1) Cell lines and establishment of stable cell lines. Human breast cancer cell lines MDA-MB-231 and MDA-MB-468, osteosarcoma line U20S, cervical adenocarcinoma line HeLa, and normal skin fibroblast Hs27 were maintained in DMEM medium (Invitrogen, Grand Island, N.Y.) supplemented 10% fetal bovine serum (FBS) and 1% penicillin-streptomycin. The leukemia cell line K562 and glioblastoma cell line T98G were grown in RPMI 1640 supplemented 10% FBS and 1% penicillin-streptomycin. Normal mammary gland epithelial cell line MCF10A was cultured in DMEM/F12 (50:50) plus 5% horse serum, 0.1 μg/mL cholera toxin, 10 μg/mL insulin, 0.5 μg/mL hydrocortisone, and 20 ng/mL epidermal growth factor. To establish MDA-MB-468 cells that stably expressed each individual GFP-Hec1 deletion construct described above, cells were infected with retrovirus expressing GFP-Hec1 WT, GFP-Hec1 W395A and GFP-Hec1 WLK/AAA, and were selected with 2 μg/ml puromycin.

[4] = tested on: HeLa cells; assay: Apoptosis assay, flow cytometry with Annexin-V staining; format: cell-based, human; details: after 48 hours, DMSO 1.8%
Method: (§2) INH-triggered mitotic catastrophe. […] Error bars represent SE, n=>200 per sample in FIG. 3A. […] Error bars represent SE n=200 in FIG. 3B. Over time, the accumulation of chromosomal and spindle abnormalities led to cell death.
The apoptosis assay was conducted as follows. 1×10^6 cells were collected and resuspended in 100 μl binding buffer (10 mM HEPES, pH 7.4; 140 mM NaCl; 2.5 mM CaCl2) after INH or control treatment for 48 hrs. To the collected cells was added 5 μl of Annexin V-FITC and 1 μl of propidium iodide (PI, […]). The cells were then gently vortexed and incubated for 15 minutes at room temperature in the dark. The samples were analyzed by flow cytometry after an additional 400 μl of binding buffer was added to each tube.

[5] = tested on: K562; assay: Cancer cell growth inhibition, K562 leukemia; format: cell-based; details: Homo sapiens, Table 2, Leukemia, read-out: cancer cell growth suppression
Method: as §1

[6] = tested on: MCF10A; assay: Growth inhibition, normal mammary epithelial MCF10A; format: cell-based; details: for IC50: Homo sapiens, MCF-10A, Table 2, Epithelial, MCF10A, read-out: cell growth suppression; for growth inhibitory effect on non-tumorgenic epithelial cells: data not shown
Method: as §1

[7] = tested on: cancer cell lines; assay: Cancer cell growth inhibition; format: cell-based
[8] = molecular target: T1, Nek2 (Homo sapiens, UniProt P51955); assay: Biotin-conjugated INH pull-down, Nek2; format: binding
T1 construct: endogenous in cells; host or cells: HeLa
T1 sequence (P51955 1-445): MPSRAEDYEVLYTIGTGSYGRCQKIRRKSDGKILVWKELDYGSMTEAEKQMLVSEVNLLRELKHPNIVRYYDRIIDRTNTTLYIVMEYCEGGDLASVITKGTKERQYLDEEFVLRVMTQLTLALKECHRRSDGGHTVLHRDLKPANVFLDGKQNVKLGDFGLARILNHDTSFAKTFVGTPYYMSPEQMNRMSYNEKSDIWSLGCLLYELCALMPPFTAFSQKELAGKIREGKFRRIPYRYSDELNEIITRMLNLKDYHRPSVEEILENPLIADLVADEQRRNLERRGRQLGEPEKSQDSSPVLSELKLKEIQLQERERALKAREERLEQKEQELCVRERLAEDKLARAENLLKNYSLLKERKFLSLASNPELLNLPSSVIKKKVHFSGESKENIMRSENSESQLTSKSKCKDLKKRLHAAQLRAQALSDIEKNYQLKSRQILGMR

[9] = tested on: MDA-MB-231; assay: Cancer cell growth inhibition, MDA-MB-231; format: cell-based; details: Homo sapiens, Table 2, Breast adenocarcinoma, read-out: cancer cell growth suppression
Method: as §1

[10] = tested on: T98G; assay: Cancer cell growth inhibition, T98G glioblastoma; format: cell-based; details: Homo sapiens, Table 2, Glioblastoma, read-out: cancer cell growth suppression
Method: as §1

[11] = tested on: HeLa cells; assay: Mitotic abnormalities in HeLa cells; format: cell-based, human; details: for chromosomal misalignment: 24 hrs of treatment, versus DMSO
Text: as §2

Row | SMILES | tumor growth rate [1] | percentage of proliferating tumor cells (BrdU staining) [1] | phosphorylation of Hec1 at S165 in tumors [1] | expression of Aurora A [2] | IC50 [3] [nM] | percentage of apoptotic cells [4] [%] | IC50 [5] [nM] | IC50 [6] [nM] | growth inhibitory effect on non-tumorgenic epithelial cells [6] | inhibition of cancer cell growth, IC50 (in words) [7] | interaction with Nek2 in pull-down [8] | IC50 [9] [nM] | IC50 [10] [nM] | chromosomal misalignment [11] | multipolar spindle configurations in the mitotic population ([11]; time course)
1 | Cc1cc(C)c(-c2csc(C(=O)c3ccncc3)n2)c(C)c1 [INH41, (4-mesitylthiazol-2-yl)(pyridin-4-yl)methanone] | significantly slower | reduced | substantially reduced | not affected | 630 | 17.4 | 620 | 58000 | Neither INH41 nor INH154 had significant growth inhibitory effects | sub-micromolar IC50 | Nek2 does not interact | 400 | 860 | increased chromosomal misalignment | aggravated in a time-dependent manner
2 | Cc1cc(N2CCCCC2)cc(C)c1-c1csc(NC(=O)c2ccncc2)n1 [INH154, N-(4-(2,6-Dimethyl-4-(piperidin-1-yl)phenyl)thiazol-2-yl)isonicotinamide] | significantly slower | reduced | substantially reduced | not affected | 110 | 67.6 | 110 | 36000 | Neither INH41 nor INH154 had significant growth inhibitory effects | sub-micromolar IC50 | Nek2 does not interact | 140 | 140 | increased chromosomal misalignment | 
